Experimental data from PubChem BioAssay (NCI).
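96-well plates; 48 h exposure; 5 concentrations. Endpoints by linear interpolation between flanking doses. Not reached: highest tested concentration assigned. GI50 = concentration required for 50% inhibition of growth. The concentration for full growth arrest is given as TGI.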

Key:
Assay in all cases: DTP human tumour cell line panel, 48 h
NCI-H23 lung = test system: NCI-H23 lung
NCI-H460 lung = test system: NCI-H460 lung
NCI-H522 lung = test system: NCI-H522 lung
NCI/ADR-RES ovarian = test system: NCI/ADR-RES ovarian
OVCAR-3 ovarian = test system: OVCAR-3 ovarian
OVCAR-4 ovarian = test system: OVCAR-4 ovarian
OVCAR-5 ovarian = test system: OVCAR-5 ovarian
OVCAR-8 ovarian = test system: OVCAR-8 ovarian
PC-3 prostate = test system: PC-3 prostate
RPMI-8226 leukemia = test system: RPMI-8226 leukemia
RXF 393 renal = test system: RXF 393 renal
SF-268 CNS = test system: SF-268 CNS
SF-295 CNS = test system: SF-295 CNS
SF-539 CNS = test system: SF-539 CNS
SK-MEL-2 melanoma = test system: SK-MEL-2 melanoma
SK-MEL-28 melanoma = test system: SK-MEL-28 melanoma
SK-MEL-5 melanoma = test system: SK-MEL-5 melanoma
SK-OV-3 ovarian = test system: SK-OV-3 ovarian
SN12C renal = test system: SN12C renal
SNB-19 CNS = test system: SNB-19 CNS
SNB-75 CNS = test system: SNB-75 CNS
SR leukemia = test system: SR leukemia
SW-620 colon = test system: SW-620 colon
T-47D breast = test system: T-47D breast
TK-10 renal = test system: TK-10 renal
U251 CNS = test system: U251 CNS
UACC-257 melanoma = test system: UACC-257 melanoma
UACC-62 melanoma = test system: UACC-62 melanoma
UO-31 renal = test system: UO-31 renal

SMILES: CC(C)C[C@H](NC(=O)Cn1cccc(CNC(=O)c2ccccc2)c1=O)B(O)O
- TGI (NCI-H23 lung): > 100 µM
- GI50 (NCI-H460 lung): 2.65 µM
- TGI (NCI-H460 lung): 15.8 µM
- GI50 (NCI-H522 lung): 0.377 µM
- TGI (NCI-H522 lung): 2.3 µM
- GI50 (NCI/ADR-RES ovarian): > 69.1 µM
- TGI (NCI/ADR-RES ovarian): > 100 µM
- GI50 (OVCAR-3 ovarian): 0.214 µM
- TGI (OVCAR-3 ovarian): 0.674 µM
- GI50 (OVCAR-4 ovarian): 0.897 µM
- TGI (OVCAR-4 ovarian): > 77 µM
- GI50 (OVCAR-5 ovarian): 2.76 µM
- TGI (OVCAR-5 ovarian): 38.9 µM
- GI50 (OVCAR-8 ovarian): 4.23 µM
- TGI (OVCAR-8 ovarian): > 85.7 µM
- GI50 (PC-3 prostate): 3.08 µM
- TGI (PC-3 prostate): > 59.1 µM
- GI50 (RPMI-8226 leukemia): 0.352 µM
- GI50 (RXF 393 renal): 0.316 µM
- TGI (RXF 393 renal): 1.1 µM
- GI50 (SF-268 CNS): 0.4 µM
- TGI (SF-268 CNS): 2.95 µM
- GI50 (SF-295 CNS): 0.442 µM
- TGI (SF-295 CNS): 2.24 µM
- GI50 (SF-539 CNS): 0.133 µM
- TGI (SF-539 CNS): 0.454 µM
- GI50 (SK-MEL-2 melanoma): 0.384 µM
- TGI (SK-MEL-2 melanoma): 2.79 µM
- GI50 (SK-MEL-28 melanoma): 0.207 µM
- TGI (SK-MEL-28 melanoma): 13 µM
- GI50 (SK-MEL-5 melanoma): 0.158 µM
- TGI (SK-MEL-5 melanoma): 0.842 µM
- GI50 (SK-OV-3 ovarian): 1.2 µM
- TGI (SK-OV-3 ovarian): 41 µM
- GI50 (SN12C renal): 0.811 µM
- TGI (SN12C renal): 11.3 µM
- GI50 (SNB-19 CNS): 0.495 µM
- TGI (SNB-19 CNS): > 100 µM
- GI50 (SNB-75 CNS): 0.32 µM
- TGI (SNB-75 CNS): 2.33 µM
- GI50 (SR leukemia): 0.304 µM
- TGI (SR leukemia): > 100 µM
- GI50 (SW-620 colon): 0.345 µM
- TGI (SW-620 colon): 6.85 µM
- GI50 (T-47D breast): 0.335 µM
- TGI (T-47D breast): 2.82 µM
- GI50 (TK-10 renal): 0.55 µM
- TGI (TK-10 renal): 4.75 µM
- GI50 (U251 CNS): 0.517 µM
- TGI (U251 CNS): 19.2 µM
- GI50 (UACC-257 melanoma): 0.505 µM
- TGI (UACC-257 melanoma): 3.53 µM
- GI50 (UACC-62 melanoma): 0.486 µM
- TGI (UACC-62 melanoma): 3.54 µM
- GI50 (UO-31 renal): 4 µM
- TGI (UO-31 renal): 23 µM
